Assay results: ChEMBL document CHEMBL4033645, “Design, synthesis, and docking studies of quinazoline analogues bearing aryl semicarbazone scaffolds as potent EGFR inhibitors” (Bioorg Med Chem, 2017); call rule not given here
pIC50: −log10 of the molar value.

Key:
Format in all cases: functional, cell-based
A549 = assay: Cytotoxicity against human A549 cells assessed as decrease in cell viability after 72 hrs by MTT assay; settings: A549, 72 h
HepG2 = assay: Cytotoxicity against human HepG2 cells assessed as decrease in cell viability after 72 hrs by MTT assay; settings: for pIC50: Homo sapiens, HepG2, 72 h, read-out: IC50; for IC50: hepg2
MCF7 = assay: Cytotoxicity against human MCF7 cells assessed as decrease in cell viability after 72 hrs by MTT assay; settings: for pIC50: Homo sapiens, MCF7, 72 h, read-out: IC50; for IC50: mcf7
PC-3 = assay: Cytotoxicity against human PC3 cells assessed as decrease in cell viability after 72 hrs by MTT assay; settings: for pIC50: Homo sapiens, PC-3, 72 h, read-out: IC50; for IC50: pc-3

## COc1cc2ncnc(Nc3ccc(F)c(Cl)c3)c2cc1NC(=O)N/N=C/c1ccc(F)cc1
A549
  pIC50: 4.58
HepG2
  pIC50: 4.51
MCF7
  pIC50: 4.45
PC-3
  pIC50: 4.44

## O=C(N/N=C/c1ccc([N+](=O)[O-])cc1)Nc1cc2c(Nc3ccc(F)c(Cl)c3)ncnc2cc1O[C@H]1CCOC1
A549
  pIC50: 4.51
HepG2
  pIC50: 4.45
MCF7
  IC50: Not Active
PC-3
  pIC50: 4.47

## CCN(CC)c1ccc(/C=N/NC(=O)Nc2cc3c(Nc4ccc(F)c(Cl)c4)ncnc3cc2O[C@H]2CCOC2)c(O)c1
A549
  pIC50: 4.81
HepG2
  pIC50: 4.80
MCF7
  pIC50: 4.81
PC-3
  pIC50: 5.34

## COc1cc2ncnc(Nc3ccc(F)c(Cl)c3)c2cc1NC(=O)N/N=C/c1cccc(Cl)c1Cl
A549
  pIC50: 4.45
HepG2
  pIC50: 4.58
MCF7
  pIC50: 4.54
PC-3
  pIC50: 4.61

## COc1cc2ncnc(Nc3ccc(F)c(Cl)c3)c2cc1NC(=O)N/N=C/c1cc(Br)c(O)c(Br)c1
A549
  pIC50: 4.46
HepG2
  pIC50: 4.43
MCF7
  pIC50: 4.52
PC-3
  pIC50: 4.38

## O=C(N/N=C/c1ccc(F)cc1)Nc1cc2c(Nc3ccc(F)c(Cl)c3)ncnc2cc1O[C@H]1CCOC1
A549
  pIC50: 4.45
HepG2
  IC50: Not Active
MCF7
  pIC50: 4.55
PC-3
  IC50: Not Active

## O=C(N/N=C/c1cccc(Cl)c1Cl)Nc1cc2c(Nc3ccc(F)c(Cl)c3)ncnc2cc1O[C@H]1CCOC1
A549
  pIC50: 4.60
HepG2
  pIC50: 4.77
MCF7
  IC50: Not Active
PC-3
  pIC50: 4.56

## O=C(N/N=C/c1cc(Br)c(O)c(Br)c1)Nc1cc2c(Nc3ccc(F)c(Cl)c3)ncnc2cc1O[C@H]1CCOC1
A549
  pIC50: 5.05
HepG2
  pIC50: 5.56
MCF7
  pIC50: 5.23
PC-3
  pIC50: 5.21

## COc1cc2ncnc(Nc3ccc(F)c(Cl)c3)c2cc1NC(=O)N/N=C/c1ccc(O)cc1
A549
  pIC50: 5.12
HepG2
  pIC50: 4.58
MCF7
  pIC50: 4.54
PC-3
  pIC50: 4.78

## COc1cc2ncnc(Nc3ccc(F)c(Cl)c3)c2cc1NC(=O)N/N=C/c1cccc(Br)c1
A549
  pIC50: 4.55
HepG2
  IC50: Not Active
MCF7
  pIC50: 4.57
PC-3
  IC50: Not Active

## COc1ccc(/C=N/NC(=O)Nc2cc3c(Nc4ccc(F)c(Cl)c4)ncnc3cc2OC)cc1
A549
  pIC50: 4.55
HepG2
  pIC50: 4.67
MCF7
  pIC50: 5.09
PC-3
  pIC50: 4.78

## N#Cc1ccc(/C=N/NC(=O)Nc2cc3c(Nc4ccc(F)c(Cl)c4)ncnc3cc2O[C@H]2CCOC2)cc1
A549
  pIC50: 4.54
HepG2
  pIC50: 4.58
PC-3
  pIC50: 4.55

## CC(C)(C)c1cc(/C=N/NC(=O)Nc2cc3c(Nc4ccc(F)c(Cl)c4)ncnc3cc2O[C@H]2CCOC2)cc(C(C)(C)C)c1O
A549
  pIC50: 4.72
HepG2
  pIC50: 4.90
MCF7
  pIC50: 4.84
PC-3
  pIC50: 4.88

## O=C(N/N=C/c1ccc(O)c(Br)c1)Nc1cc2c(Nc3ccc(F)c(Cl)c3)ncnc2cc1O[C@H]1CCOC1
A549
  pIC50: 5.37
HepG2
  pIC50: 6.18
MCF7
  pIC50: 5.57
PC-3
  pIC50: 5.28

## O=C(N/N=C/c1ccc(F)cc1Cl)Nc1cc2c(Nc3ccc(F)c(Cl)c3)ncnc2cc1O[C@H]1CCOC1
A549
  pIC50: 4.57
HepG2
  pIC50: 4.58
MCF7
  pIC50: 4.49
PC-3
  pIC50: 4.55

## COc1cc2ncnc(Nc3ccc(F)c(Cl)c3)c2cc1NC(=O)N/N=C/c1ccc(F)cc1Cl
A549
  pIC50: 4.55
HepG2
  pIC50: 4.53
MCF7
  IC50: Not Active
PC-3
  pIC50: 4.59
